# Experimental data reported in patent US10214546B2, “Btk inhibitors” (MERCK SHARP & DOHME CORP., priority 2014, dated 2019).
# Read-outs that look alike come from different tables or passages of the source.
# What was measured:
# [1] = molecular target: BTK enzyme (recombinant full-length BTK, hBTK) (Homo sapiens (Human), UniProt Q06187); assay: BTK enzymatic activity LANCE TR-FRET assay; format: biochemical; settings: 50 pM hBTK, 25 μM ATP, 2 μM biotin-A5-peptide; compound range 1 μM to 0.017 nM; read-out: BTK binding IC50
# Procedure: Btk Enzyme Activity Assay Methods
# BTK enzymatic activity was determined with the LANCE (Lanthanide Chelate Excite) TR-FRET (Time-resolved fluorescence resonance energy transfer) assay. […] Phosphorylation reactions were allowed to proceed for 120 minutes. […] After 60 minutes incubation with detection reagents, reaction plates were read on a PerkinElmer EnVision plate reader using standard TR-FRET protocol. […] IC50 values were determined by 4 parameter robust fit of TR-FRET ratio values vs. (Log10) compound concentrations.
# [2] = test system: adenosine uptake into HeLa cells; assay: [3H]Adenosine uptake assay in HeLa cells; format: cell-based; settings: [3H]adenosine accumulation in HeLa cells, compound range 10 μM to 0.032 nM, read-out: ADU inhibition IC50
# Procedure: Compounds are also screened in an adenosine uptake functional cellular assay using the protocol described below:
# [^3H]Adenosine Uptake Assay Methods
# Adenosine uptake activity was determined by monitoring the accumulation of tritiated adenosine into HeLa cells (ATCC catalog # CCL-2) using a PMT-based radiometric detection instrument. In this assay, the potency (IC50) of each compound was determined from a ten point (1:3 serial dilution; final compound concentration range in assay from 10 µM to […]) titration curve using the following outlined procedure. To each well of a 96-well CytoStar-T scintillating microplate (Perkin Elmer Catalog # RPNQ0163), 25 000 HeLa cells in 100 µL of growth medium comprising: Minimum Essential Media (Life Technologies Catalog #11095-080)+10% (v/v) foetal bovine serum (FBS; Sigma Aldrich Catalog # F2442) was added. These cells were incubated overnight at 37° C. in a humidified atmosphere with 5% (v/v) CO2. After this time the growth medium was removed and replaced with 40 μL assay medium comprising: Hanks balanced salts solution (HBSS; Thermo Fisher Catalog # SH30268.01)+5% (v/v) FBS. Compound stock solutions in DMSO were diluted in assay medium to 2.5× final compound concentration maintaining a constant DMSO concentration of 0.25% (v/v). 40 μL of compound in assay medium was dispensed into individual wells of the Cytostar-T plates and the plates were incubated for 30 minutes under ambient laboratory conditions. Following this incubation, 20 μL of 500 nM [^3H] adenosine (American Radiolabeled Chemicals Inc. […] The amount of radiolabel accumulation was then determined using a Perkin Elmer Topcount NXT microplate reader. In brief, HeLa cells adhere to the bottom of the Cytostar-T plate, uptake of [^3H]adenosine into these cells brings the radiolabel into sufficient proximity to excite the scintillant in the base of the plates. These events are captured by single PMT, time-resolved coincidence counting. IC50 values were determined by 4 parameter robust fit of counts per second values vs. (Log10) compound concentrations.
# BTK enzyme (recombinant full-length BTK, hBTK), sequence (Q06187 whole entry): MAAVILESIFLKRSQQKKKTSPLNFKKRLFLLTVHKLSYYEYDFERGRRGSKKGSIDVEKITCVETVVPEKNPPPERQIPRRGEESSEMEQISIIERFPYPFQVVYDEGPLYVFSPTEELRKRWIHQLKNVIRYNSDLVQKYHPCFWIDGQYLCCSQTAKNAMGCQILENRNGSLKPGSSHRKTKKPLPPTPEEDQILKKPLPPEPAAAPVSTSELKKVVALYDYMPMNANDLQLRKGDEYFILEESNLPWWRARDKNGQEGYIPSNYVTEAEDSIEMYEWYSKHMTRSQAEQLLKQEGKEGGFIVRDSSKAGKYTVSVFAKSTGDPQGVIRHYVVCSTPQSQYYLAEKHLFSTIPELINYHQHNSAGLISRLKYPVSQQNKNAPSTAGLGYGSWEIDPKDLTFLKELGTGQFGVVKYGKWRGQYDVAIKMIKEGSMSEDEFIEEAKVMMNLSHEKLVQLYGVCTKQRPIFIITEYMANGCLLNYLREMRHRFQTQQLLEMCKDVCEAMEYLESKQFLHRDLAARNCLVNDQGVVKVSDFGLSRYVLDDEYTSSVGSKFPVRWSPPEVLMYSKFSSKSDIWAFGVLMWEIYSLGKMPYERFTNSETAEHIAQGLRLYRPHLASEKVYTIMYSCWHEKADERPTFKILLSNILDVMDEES
Structure (SMILES),IC50 [1] [nM],"IC50 ([2]; Homo sapiens, HeLa) [nM]",IC50 [2] [nM]
"C[C@](O)(c1cccc(C(F)(F)F)c1)c1ccc(-c2nc([C@@H]3CC[C@H]4CCC(=O)N4C3)n3ccnc(N)c23)c(CO)c1 [Example 20, (6R,8aS)-6-(8-amino-1-(4-((R)-1-hydroxy-1-(3-(trifluoromethyl)phenyl)ethyl)-2-(hydroxymethyl)phenyl)imidazo[1,5-a]pyrazin-3-yl)hexahydroindolizin-3(2H)-one]",230,2570,
"C[C@@](O)(c1cccc(C(F)(F)F)c1)c1ccc(-c2nc([C@@H]3CC[C@H]4CCC(=O)N4C3)n3ccnc(N)c23)c(CO)c1 [Example 21, (6R,8aS)-6-(8-amino-1-(4-((S)-1-hydroxy-1-(3-(trifluoromethyl)phenyl)ethyl)-2-(hydroxymethyl)phenyl)imidazo[1,5-a]pyrazin-3-yl)hexahydroindolizin-3(2H)-one]",5.8,7480,
"CCOc1cc(C(C)(O)c2cccc(C(F)(F)F)c2)cc(F)c1-c1nc([C@@H]2CC[C@H]3CCC(=O)N3C2)n2ccnc(N)c12 (stereo partly drawn) [Example 22, (6R,8aS)-6-(8-amino-1-(2-ethoxy-6-fluoro-4-(1-hydroxy-1-(3-(trifluoromethyl)phenyl)ethyl)phenyl)imidazo[1,5-a]pyrazin-3-yl)hexahydroindolizin-3(2H)-one]",1.7,3820,
CC(O)(c1ccccc1)c1ccc(-c2nc([C@@H]3CC[C@H]4CCC(=O)N4C3)n3ccnc(N)c23)c(F)c1 (stereo partly drawn) [Example 24],5.2,2490,
"Nc1nccn2c([C@@H]3CC[C@H]4CCC(=O)N4C3)nc(-c3ccc([C@](O)(c4ccccc4)C(F)(F)F)cc3)c12 [Example 25, (6R,8aS)-6-(8-amino-1-{4-[(1R)-2,2,2-trifluoro-1-hydroxy-1-phenylethyl]phenyl}imidazo[1,5-a]pyrazin-3-yl)hexahydroindolizin-3(2H)-one]",1.8,3830,
"Nc1nccn2c([C@@H]3CC[C@H]4CCC(=O)N4C3)nc(-c3ccc([C@@](O)(c4ccccc4)C(F)(F)F)cc3)c12 [Example 26, (6R,8aS)-6-(8-amino-1-{4-[(1S)-2,2,2-trifluoro-1-hydroxy-1-phenylethyl]phenyl}imidazo[1,5-a]pyrazin-3-yl)hexahydroindolizin-3(2H)-one]",156,2610,
"Nc1nccn2c([C@@H]3CC[C@H]4CCC(=O)N4C3)nc(-c3ccc(C(O)(c4cccc(C(F)(F)F)c4)C(F)(F)F)cc3)c12 (stereo partly drawn) [Example 27, (6R,8aS)-6-[8-amino-1-(4-{2,2,2-trifluoro-1-hydroxy-1-[3-(trifluoromethyl)phenyl]ethyl}phenyl)imidazo [1,5-a]pyrazin-3-yl]hexahydroindolizin-3(2H)-one]",9.8,1240,
"Nc1nccn2c([C@@H]3CC[C@H]4CCC(=O)N4C3)nc(-c3ccc(C(O)(c4cccc(F)c4)C(F)(F)F)cc3)c12 (stereo partly drawn) [Example 29, (6R,8aS)-6-(8-amino-1-{4-[2,2,2-trifluoro-1-(3-fluorophenyl)-1-hydroxyethyl]phenyl}imidazo[1,5-a]pyrazin-3-yl)hexahydroindolizin-3(2H)-one]",6.9,1990,
"Nc1nccn2c([C@@H]3CC[C@H]4CCC(=O)N4C3)nc(-c3ccc(C(O)(c4ccccc4)C(F)(F)F)cc3F)c12 (stereo partly drawn) [Example 30, (6R,8aS)-6-{8-amino-1-[2-fluoro-4-(2,2,2-trifluoro-1-hydroxy-1-phenylethyl)phenyl)imidazo[1,5-a]pyrazin-3-yl}hexahydroindolizin-3(2H)-one]",2.8,1310,
"CC(O)(c1ccc(-c2nc([C@@H]3CC[C@H]4CCC(=O)N4C3)n3ccnc(N)c23)cc1)c1ccccc1C(F)(F)F (stereo partly drawn) [Example 31, (6R,8aS)-6-[8-amino-1-(4-{1-hydroxy-1-[2-(trifluoromethyl)phenyl]ethyl}phenyl)imidazo [1,5-a]pyrazin-3-yl]hexahydroindolizin-3(2H)-one]",78.3,4810,
"Cn1nc(C(C)(O)c2ccc(-c3nc([C@@H]4CC[C@H]5CCC(=O)N5C4)n4ccnc(N)c34)cc2)cc1C(F)(F)F (stereo partly drawn) [Example 35, (6R,8aS)-6-[8-amino-1-(4-{1-hydroxy-1-[1-methyl-5-(trifluoromethyl)-1H-pyrazol-3-yl]ethyl}phenyl)imidazo [1,5-a]pyrazin-3-yl]hexahydroindolizin-3(2H)-one]",218,2230,
C[C@](O)(c1ccc(-c2nc([C@@H]3CC[C@H]4CCC(=O)N4C3)n3ccnc(N)c23)cc1)c1cc(C(F)(F)F)ccn1 [Example 36],1000,704,
"C[C@@](O)(c1ccc(-c2nc([C@@H]3CC[C@H]4CCC(=O)N4C3)n3ccnc(N)c23)cc1)c1cc(C(F)(F)F)ccn1 [Example 37, (6R,8aS)-6-[8-amino-1-(4-{(1R)-1-hydroxy-1-[4-(trifluoromethyl)pyridin-2-yl]ethyl}phenyl)imidazo[1,5-a]pyrazin-3-yl]hexahydroindolizin-3(2H)-one]",255,3470,
"C[C@@](O)(c1ccc(-c2nc([C@@H]3CC[C@H]4CCC(=O)N4C3)n3ccnc(N)c23)cc1)c1cccc(C2CC2)c1 [Example 38, (6R,8aS)-6-(8-amino-1-{4-[(1R)-1-(3-cyclopropylphenyl)-1-hydroxyethyl]phenyl}imidazo[1,5-a]pyrazin-3-yl)hexahydroindolizin-3(2H)-one]",0.07,1840,
"CC(C)(C)c1cccc([C@@](C)(O)c2ccc(-c3nc([C@@H]4CC[C@H]5CCC(=O)N5C4)n4ccnc(N)c34)cc2)c1 [Example 39, (6R,8aS)-6-(8-amino-1-{4-[(1S)-1-(3-tert-butylphenyl)-1-hydroxyethyl]phenyl}imidazo[1,5-a]pyrazin-3-yl)hexahydroindolizin-3(2H)-one]",9.6,608,
"CC(C)(C)c1cccc([C@](C)(O)c2ccc(-c3nc([C@@H]4CC[C@H]5CCC(=O)N5C4)n4ccnc(N)c34)cc2)c1 [Example 40, (6R,8aS)-6-(8-amino-1-{4-[(1R)-1-(3-tert-bulylphenyl)-1-hydroxyethyl]phenyl}imidazo[1,5-a]pyrazin-3-yl)hexahydroindolizin-3(2H)-one]",0.27,1760,
"C[C@](O)(c1ccc(-c2nc([C@@H]3CC[C@H]4CCC(=O)N4C3)n3ccnc(N)c23)cc1)c1cccc(Cl)c1 [Example 41, (6R,8aS)-6-(8-amino-1-{4-[(1S)-1-(3-chlorophenyl)-1-hydroxyethyl]phenyl}imidazo[1,5-a]pyrazin-3-yl)hexahydroindolizin-3(2H)-one]",116,588,
"Cc1cc(-c2nc([C@@H]3CC[C@H]4CCC(=O)N4C3)n3ccnc(N)c23)ccc1C(C)(O)c1cccc(C(F)(F)F)c1 (stereo partly drawn) [Example 42, (6R,8aS)-6-[8-amino-1-(4-{1-hydroxy-1-[3-(trifluoromethyl)phenyl]ethyl}-3-methylphenyl)imidazo [1,5-a]pyrazin-3-yl]hexahydroindolizin-3(2H)-one]",1000,,3230
"Cc1cc(-c2nc([C@@H]3CC[C@H]4CCC(=O)N4C3)n3ccnc(N)c23)ccc1C(C)(O)c1cccc(C(F)(F)F)c1 (stereo partly drawn) [Example 43, (6R,8aS)-6-[8-amino-1-(4-{1-hydroxy-1-[3-(trifluoromethyl)phenyl]ethyl}-3-methylphenyl)imidazo [1,5-a]pyrazin-3-yl]hexahydroindolizin-3(2H)-one]",1000,,535
"COc1cccc([C@@](C)(O)c2ccc(-c3nc([C@@H]4CC[C@H]5CCC(=O)N5C4)n4ccnc(N)c34)cc2)c1 [Example 44, (6R,8aS)-6-(8-amino-1-{4-[(1S)-1-hydroxy-1-(3-methoxyphenyl)ethyl]phenyl}imidazo[1,5-a]pyrazin-3-yl)hexahydroindolizin-3(2H)-one]",81.4,1780,
"COc1cccc([C@](C)(O)c2ccc(-c3nc([C@@H]4CC[C@H]5CCC(=O)N5C4)n4ccnc(N)c34)cc2)c1 [Example 45, (6R,8aS)-6-(8-amino-1-{4-[(1R)-1-hydroxy-1-(3-methoxyphenyl)ethyl]phenyl}imidazo[1,5-a]pyrazin-3-yl)hexahydroindolizin-3(2H)-one]",1.1,2760,
